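All cell lines were grown in 96-well plates and treated with compound for 48 hours. GI50: concentration for 50% inhibition of growth. TGI: concentration producing complete growth inhibition.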
What was measured:
Test in all cases: NCI-60 cell line screen, 48 h
[1] = test system: KM12 colon
[2] = test system: SN12C renal
[3] = test system: NCI-H522 lung
[4] = test system: HL-60(TB) leukemia
[5] = test system: SF-295 CNS
[6] = test system: PC-3 prostate
[7] = test system: SF-539 CNS
[8] = test system: SNB-19 CNS
[9] = test system: M14 melanoma
[10] = test system: HCC-2998 colon
[11] = test system: EKVX NSCLC
[12] = test system: NCI-H226 lung
[13] = test system: NCI-H23 lung
[14] = test system: DU-145 prostate
[15] = test system: TK-10 renal
[16] = test system: UO-31 renal
[17] = test system: A549 NSCLC
[18] = test system: LOX IMVI melanoma
[19] = test system: SK-OV-3 ovarian
[20] = test system: SNB-75 CNS
[21] = test system: UACC-62 melanoma
[22] = test system: HOP-62 NSCLC
[23] = test system: SK-MEL-5 melanoma
[24] = test system: K-562 leukemia
[25] = test system: CCRF-CEM leukemia
[26] = test system: NCI/ADR-RES ovarian
[27] = test system: HOP-92 NSCLC
[28] = test system: RXF 393 renal
[29] = test system: MDA-MB-435
[30] = test system: CAKI-1 renal
[31] = test system: COLO 205 colon
[32] = test system: MCF7 breast
[33] = test system: SK-MEL-28 melanoma
[34] = test system: BT-549 breast
[35] = test system: IGROV1 ovarian
[36] = test system: OVCAR-4 ovarian
[37] = test system: A498 renal
[38] = test system: UACC-257 melanoma
[39] = test system: RPMI-8226 leukemia
[40] = test system: MDA-MB-468 breast
[41] = test system: T-47D breast
[42] = test system: MDA-MB-231 breast
[43] = test system: MOLT-4 leukemia
[44] = test system: OVCAR-5 ovarian
[45] = test system: U251 CNS
[46] = test system: ACHN renal
[47] = test system: OVCAR-8 ovarian
[48] = test system: 786-0 renal
[49] = test system: HCT-116 colon
[50] = test system: HS 578T breast
[51] = test system: OVCAR-3 ovarian
[52] = test system: MALME-3M melanoma
[53] = test system: SW-620 colon
[54] = test system: SK-MEL-2 melanoma
[55] = test system: NCI-H460 lung
[56] = test system: HT29 colon
[57] = test system: HCT-15 colon
[58] = test system: SF-268 CNS
[59] = test system: SR leukemia

SMILES: C=C1CCC2C3(C)COC(c4ccccc4)OC3CCC2(C)C1CC(Sc1ccccc1)C1=CCOC1=O (configuration not stated)
- GI50 [1]: 11.7 µM
- TGI [1]: > 100 µM
- GI50 [2]: 10.4 µM
- TGI [2]: > 100 µM
- GI50 [3]: 10.4 µM
- TGI [3]: 22.8 µM
- GI50 [4]: 2.66 µM
- TGI [4]: 8.66 µM
- GI50 [5]: 21.3 µM
- TGI [5]: > 100 µM
- GI50 [6]: 5.88 µM
- TGI [6]: > 100 µM
- GI50 [7]: 6.82 µM
- TGI [7]: 20.8 µM
- GI50 [8]: 45.1 µM
- TGI [8]: > 100 µM
- GI50 [9]: 9.87 µM
- TGI [9]: 35 µM
- GI50 [10]: 22.3 µM
- TGI [10]: > 100 µM
- GI50 [11]: 5.77 µM
- TGI [11]: 95.5 µM
- GI50 [12]: 6.32 µM
- TGI [12]: 42.4 µM
- GI50 [13]: 25.7 µM
- TGI [13]: > 100 µM
- GI50 [14]: 18.5 µM
- TGI [14]: > 100 µM
- GI50 [15]: 76.1 µM
- TGI [15]: > 100 µM
- GI50 [16]: 6.36 µM
- TGI [16]: > 100 µM
- GI50 [17]: 13.1 µM
- TGI [17]: > 100 µM
- GI50 [18]: 3.43 µM
- TGI [18]: 14.3 µM
- GI50 [19]: > 100 µM
- TGI [19]: > 100 µM
- GI50 [20]: 1.71 µM
- TGI [20]: > 100 µM
- GI50 [21]: 10.3 µM
- TGI [21]: 27.7 µM
- GI50 [22]: 72.2 µM
- TGI [22]: > 100 µM
- GI50 [23]: 10.9 µM
- TGI [23]: 23.4 µM
- GI50 [24]: 3.88 µM
- TGI [24]: > 100 µM
- GI50 [25]: 2.35 µM
- TGI [25]: 8.71 µM
- GI50 [26]: 4.78 µM
- TGI [26]: 26.4 µM
- GI50 [27]: 6.54 µM
- TGI [27]: 41.9 µM
- GI50 [28]: 6.61 µM
- TGI [28]: 43 µM
- GI50 [29]: 7.09 µM
- TGI [29]: 35.4 µM
- GI50 [30]: 18.6 µM
- TGI [30]: > 100 µM
- GI50 [31]: 20.3 µM
- TGI [31]: 46.8 µM
- GI50 [32]: 3.42 µM
- TGI [32]: > 100 µM
- GI50 [33]: 27.2 µM
- TGI [33]: > 100 µM
- GI50 [34]: 2.17 µM
- TGI [34]: 9.12 µM
- GI50 [35]: 17.3 µM
- TGI [35]: > 100 µM
- GI50 [36]: 25.5 µM
- TGI [36]: > 100 µM
- GI50 [37]: > 100 µM
- TGI [37]: > 100 µM
- GI50 [38]: 33.6 µM
- TGI [38]: > 100 µM
- GI50 [39]: 2.59 µM
- TGI [39]: 7.84 µM
- GI50 [40]: 4.8 µM
- TGI [40]: 26.4 µM
- GI50 [41]: 5.2 µM
- TGI [41]: > 100 µM
- GI50 [42]: 13.7 µM
- TGI [42]: 49 µM
- GI50 [43]: 2.97 µM
- TGI [43]: > 100 µM
- GI50 [44]: 25.9 µM
- TGI [44]: > 100 µM
- GI50 [45]: 9.9 µM
- TGI [45]: 26.5 µM
- GI50 [46]: 12.7 µM
- TGI [46]: > 100 µM
- GI50 [47]: 4.98 µM
- TGI [47]: 29 µM
- GI50 [48]: 14.4 µM
- TGI [48]: 40.5 µM
- GI50 [49]: 3.52 µM
- TGI [49]: 15.5 µM
- GI50 [50]: 37 µM
- TGI [50]: > 100 µM
- GI50 [51]: 3.66 µM
- TGI [51]: 13.1 µM
- GI50 [52]: 27.9 µM
- TGI [52]: > 100 µM
- GI50 [53]: 3.31 µM
- TGI [53]: > 100 µM
- GI50 [54]: 6.22 µM
- TGI [54]: 21.9 µM
- GI50 [55]: 17.4 µM
- TGI [55]: > 100 µM
- GI50 [56]: 5.8 µM
- TGI [56]: 39.7 µM
- GI50 [57]: 5.12 µM
- TGI [57]: 45 µM
- GI50 [58]: 48.6 µM
- TGI [58]: > 100 µM

SMILES: C/C(=N/O)c1ccc(NC(=O)CSc2nnc(-c3ccc(-c4nc5ccc(Cl)cc5[nH]4)cc3)o2)cc1
- GI50 [1]: 2.66 µM
- TGI [1]: 8.48 µM
- GI50 [2]: 1.87 µM
- TGI [2]: 4.06 µM
- GI50 [3]: 1.57 µM
- TGI [3]: 3.42 µM
- GI50 [4]: 3.63 µM
- TGI [4]: 17.4 µM
- GI50 [6]: 2.21 µM
- TGI [6]: 5.08 µM
- GI50 [7]: 1.71 µM
- TGI [7]: 3.08 µM
- GI50 [8]: 1.9 µM
- TGI [8]: 3.62 µM
- GI50 [9]: 1.76 µM
- TGI [9]: 3.54 µM
- GI50 [10]: 11.2 µM
- TGI [10]: > 100 µM
- GI50 [11]: 3.05 µM
- TGI [11]: 13.2 µM
- GI50 [12]: 1.74 µM
- TGI [12]: 3.68 µM
- GI50 [13]: 1.9 µM
- TGI [13]: 4.09 µM
- GI50 [14]: 2.09 µM
- TGI [14]: 4.73 µM
- GI50 [15]: 5.78 µM
- TGI [15]: 17.4 µM
- GI50 [16]: 37.2 µM
- TGI [16]: > 100 µM
- GI50 [17]: 1.98 µM
- TGI [17]: 4.2 µM
- GI50 [18]: 1.57 µM
- TGI [18]: 2.92 µM
- GI50 [19]: 2.38 µM
- TGI [19]: 5.33 µM
- GI50 [20]: 1.57 µM
- TGI [20]: 3.41 µM
- GI50 [21]: 1.78 µM
- TGI [21]: 3.36 µM
- GI50 [22]: 2.01 µM
- TGI [22]: 3.95 µM
- GI50 [23]: 1.75 µM
- TGI [23]: 3.33 µM
- GI50 [24]: 2.63 µM
- TGI [24]: 10.6 µM
- GI50 [25]: 2.33 µM
- TGI [25]: 6.75 µM
- GI50 [26]: 84.7 µM
- TGI [26]: > 100 µM
- GI50 [27]: 1.83 µM
- TGI [27]: 3.86 µM
- GI50 [28]: 1.75 µM
- TGI [28]: 3.31 µM
- GI50 [29]: 1.65 µM
- TGI [29]: 3.27 µM
- GI50 [30]: 1.85 µM
- TGI [30]: 3.73 µM
- GI50 [31]: 3.14 µM
- TGI [31]: 12.2 µM
- GI50 [32]: 2.2 µM
- TGI [32]: 5.93 µM
- GI50 [33]: 1.73 µM
- TGI [33]: 3.18 µM
- GI50 [34]: 2.39 µM
- TGI [34]: 4.35 µM
- GI50 [35]: 3.35 µM
- TGI [35]: 12 µM
- GI50 [36]: 2.04 µM
- TGI [36]: 4.58 µM
- GI50 [37]: 1.94 µM
- TGI [37]: 4.58 µM
- GI50 [38]: 2.06 µM
- TGI [38]: 4.5 µM
- GI50 [39]: 3.16 µM
- TGI [39]: 15 µM
- GI50 [40]: 1.81 µM
- TGI [40]: 4.09 µM
- GI50 [41]: 2.05 µM
- TGI [41]: 4.5 µM
- GI50 [42]: 1.83 µM
- TGI [42]: 3.52 µM
- GI50 [43]: 2.62 µM
- TGI [43]: 12.4 µM
- GI50 [44]: 3.33 µM
- TGI [44]: 13.8 µM
- GI50 [45]: 1.83 µM
- TGI [45]: 3.4 µM
- GI50 [46]: 2.7 µM
- TGI [46]: 8.65 µM
- GI50 [47]: 2.94 µM
- TGI [47]: 9.98 µM
- GI50 [48]: 1.91 µM
- TGI [48]: 3.53 µM
- GI50 [49]: 2.29 µM
- TGI [49]: 5.73 µM
- GI50 [50]: 2.21 µM
- TGI [50]: 5.19 µM
- GI50 [59]: 2.84 µM
- TGI [59]: 15.5 µM
- GI50 [51]: 1.74 µM
- TGI [51]: 3.73 µM
- GI50 [52]: 1.58 µM
- TGI [52]: 2.95 µM
- GI50 [53]: 2.84 µM
- TGI [53]: 8.54 µM
- GI50 [54]: 1.78 µM
- TGI [54]: 3.68 µM
- GI50 [55]: 1.61 µM
- TGI [55]: 3.25 µM
- GI50 [56]: 2.44 µM
- TGI [56]: 6 µM
- GI50 [57]: 34.5 µM
- TGI [57]: > 100 µM
- GI50 [58]: 1.83 µM
- TGI [58]: 3.78 µM
